The results in this text go back to patent US5922554A, “Inhibition of cellular uptake of cholesterol” (The Regents of the University of California, priority 1996, dated 1999).

Type in all cases: cell-based, human
Experiment [1] deals with fibroblast monolayers. Nature of the experiment: Influx/uptake of ^3 H-FC (free cholesterol) from labeled LDL (or plasma, HDL) into normal fibroblast monolayers.
Experiment [2] has as its system fibroblast monolayers. As to the kind of experiment: Cholesterol efflux from ^3 H-cholesterol labeled fibroblasts to plasma. As to the method:
Fibroblast monolayers were equilibrated with ^3 H-FC-labeled native plasma or with isolated ^3 H-labeled LDL, as specified for each experiment. Following incubation, the dishes were washed with albumin-complete PBS and then (×4) with complete PBS. They were then incubated for 3 min with unlabeled plasma or lipoprotein fractions and the rate of appearance of radioactivity in the medium determined. Samples of medium (100 μl) were immediately chilled in ice water and centrifuged (10 min, 2000× g) at 0-2° C. ^3 H-cholesterol radioactivity in the supernatant was either assayed directly, or fractionated by agarose gel electrophoresis. FC efflux was linear as previously reported (Kawano et al., Biochemistry, 32: 5025-5028 (1993)).
For electrophoresis, 20 μl portions of labeled medium were added to strips of 0.75% w/v agarose in 0.025M barbital buffer (pH 8.6) and separated as previously described (Fielding et al., Biochemistry, 30: 8551-8557 (1991)). 2.5 mm gel fractions were then collected, and radioactivity measured. The location of major lipoprotein classes was determined from strips run simultaneously with whole native plasma equilibrated (60 min, 37° C.) with ^3 H-FC.
^c Percent loss of label from cells prelabeled (10 min, 37° C.

Experiment [3] relates to fibroblast monolayers. As to the kind of experiment: Distribution of cell-associated LDL ^3 H-FC label by release with unlabeled lipoproteins/plasma. Conditions: 2 mM NEM; 10 min, 37° C. with 80% v/v plasma-PBS; control 0.57 ± 0.03. The protocol:
Label released by unlabeled LDL (open circles); label released by unlabeled HDL but not unlabeled LDL (closed triangles) and label released with neither LDL or HDL (closed circles) expressed as percent of total label released. LDL specific activity was […]. All fractions are defined in terms of label released by either unlabeled lipoprotein within 5 min of incubation at 37° C.
Cell monolayers equilibrated with 7% plasma-DMEM were first incubated with ^3 H-FC labeled LDL as described above. At intervals, dishes of cells were washed, then incubated with unlabeled LDL or HDL at their plasma concentrations. A fraction of cell-associated label was rapidly released; maximum recovery in the medium occurred within 10 min at 37° C. In FIG. 4, the proportions of cell label which were LDL-releasable, LDL-resistant but HDL-releasable, and resistant to both LDL and HDL are shown as a function of time.
^b Proportion of cell cholesterol label retained in the cells

The test system of experiment [4] is fibroblast monolayers. As to the kind of experiment: Transfer of intracellular ^3 H-FC to the cell surface (cholesterol oxidase accessibility). The protocol: This assay utilized the finding (see Example 1) that only FC in the caveolar fraction of the plasma membrane fraction was modified by cholesterol oxidase in unfixed fibroblast monolayers.
The rate at which intracellular LDL-derived ^3 H-FC became accessible at the cell surface was measured as follows. Cell monolayers were labeled with ^3 H-FC LDL under the conditions shown for each experiment. Unbound and adsorbed LDL were removed as described above. In some experiments metabolic inhibitors of different transport steps were then added for 30 min at 15° C. […] Cholesterol oxidase (Boehringer-Manheim, Indianapolis, Ind., USA) was added in PBS to a final concentration of 1 U ml^-1. Incubation was for 4 h at 0° C. The cells were washed with ice-cold PBS, and extracted with 0. 1N NAOH. Cell total lipid was extracted with chloroform-methanol (1:1 v/v). […] .
Fibroblast monolayers were prelabeled with FC-labeled LDL for 2 min at 31° C. Medium and surface-bound labeled LDL were removed as described above. The cells were incubated with inhibitors of intracellular transport for 30 min at 15° C. Movement of FC label to the cell surface remained negligible (FIG. 11).
^a Relative to rate in the absence of inhibitor. Values are expressed

Experiment [5] concerns fibroblast monolayers. As to the kind of experiment: D2O-Ficoll density gradient fractionation of ^3 H-FC labeled fibroblasts. To be noted: clathrin fraction d 1.12 g ml^-1; NEM 2 mM. As to the method: Early endosomal vesicles were labeled with LDL-derived ^3 H-FC by a modification of procedures described by Woodman & Warren (1991) J. Cell Biol., 112:1133-1141. Fibroblast monolayers in 10 cm dishes were washed in ice-cold PBS. The cells were labeled by incubation (2 h, 4° C.) with ^3 H-FC LDL. The monolayers were washed in PBS and brought to 31° C. for 0-15 min. The cells were then quickly chilled on ice, and cold unlabeled LDL was added (15 min, 4° C.) to displace any remaining surface-bound labeled LDL and all subsequent steps were carried out at 0-4° C.
Cells from three 10 cm dishes were used for each gradient. Monolayers were washed with 140 mM sucrose, 0.5 mM MgCl2, 1 mM EGTA, 20 mM 2-[N-morpholino]ethanesulfonic acid (MES), 70 mM potassium acetate, pH 6.6 (`vesicle buffer`) (Woodman & Warren, supra.). The cells were scraped from the dishes. Dithiothreitol (1 mm) and protease inhibitors (PMSF, 200 μg ml^-1; benzamidine 0.5 mM; soybean trypsin inhibitor 10 μg ml^-1; leupeptin 1 μg ml^-1) were added. The cells were broken with a Dounce homogenizer (15 strokes) and the homogenate centrifuged at 500× g for 5 min. Ribonuclease A (50 μg ml^-1) was added. After 30 min a second centrifugation was carried out (7000× g, 30 min). Supernatant (~2 ml) was layered on a 10 ml continuous gradient of 2% Ficoll-9% D2 O to 20% Ficoll-90% D2 O in vesicle buffer containing 1 mM dithiothreitol. Centrifugation in a Beckman SW41 rotor was carried out at 80,000× g for 16 h. Fractions (~0.6 ml) were collected dropwise and the distribution of FC label determined. Because of slight variation in fraction size between gradients, data were normalized to 20 fractions for comparison between experiments. Solution density was determined gravimetrically using 100 μl portions of each fraction. The density of a given fraction was reproducible ±0.5% between experiments.
Fibroblast monolayers were incubated with ^3 H-FC LDL for 30 min at 31° C. to predominantly label the intermediate density vesicle fraction. Cell surface LDL was removed as described above. […]

`CCN1C(=O)C=CC1=O` [N-ethylmaleimide]: the “inhibition of LDL-FC pathway (summary, words)” value in the experiment on fibroblast monolayers [1] is listed as “inhibited”. In addition, in the experiment with fibroblast monolayers [1] (30 min preincubation, FIG. 8), the “effect on cellular uptake of LDL FC in first 10-15 min of incubation” value is reported as “no effect”. Also, the IC (maximal) with fibroblast monolayers [1] (Homo sapiens, Fibroblast, read-out: concentration for maximal inhibition) fell in the range of 2000 to 5000 µM. In addition, the “FC Influx” value in the experiment with fibroblast monolayers [1] (LDL-FC 60.2 μg ml^-1, 60 min, 37° C., 30 min preequilibration with inhibitor at: Na-azide 1 mM, NH4-vanadate 1 mM, NEM 2 mM, KNO3 50 mM, progesterone 30 μM, forskolin 30 μM, IBMX 100 μM, chloroquine 20 μM) turned out to be 0.40 ± 0.01 µg. Also, the “inhibition of uptake of free cholesterol from LDLs (summary)” value with fibroblast monolayers [1] (NEM or KNO3, Example 1, FIG. 8) is more than 80%. Moreover, in the experiment with fibroblast monolayers [1] (Table 3 conditions), the “effect on LDL FC uptake” value was “blocks selective uptake of FC from LDL”. Also, in the experiment on fibroblast monolayers [1] (cells prelabeled to equilibrium (24 h) with ^3 H-FC), the “time to complete inhibition by NEM” value is not above 30 min. The “FC Influx, % (PBS only = 100.0)” value with fibroblast monolayers [1] (same concentrations and conditions as Table 3 FC influx, 60 min) stood at 30.0%. Moreover, the “inhibition of uptake of ^3 H-FC from LDL on further incubation” value in the experiment on fibroblast monolayers [1] (time course, 30 min preincubation, after 10-15 min, FIG. 8 (5 mM NEM)) is more than 80%. For the same compound, the “initial rate of efflux of FC from prelabeled cells to plasma” value in the experiment on fibroblast monolayers [2] is listed as “increased several-fold”. In the experiment on fibroblast monolayers [2] (2 mM NEM, 80% v/v plasma-PBS, 37° C., control 13.3 ± 0.1), the “% efflux to plasma (3 min)” value stood at 32.4 ± 0.2%. In addition, the “Lipoprotein-resistant label (proportion of cell cholesterol label retained)” value in the experiment on fibroblast monolayers [3] was 0.24 ± 0.03. Further, the “transport of intracellular ^3 H-FC to the cell surface/caveolae” value with fibroblast monolayers [4] is “inhibited the return of FC to the cell surface, but less effectively than did nocodazole”. In the experiment on fibroblast monolayers [4] (NEM 2 mM, KNO3 50 mM, nocodazole, brefeldin A, vinblastine 40 μM, pulse labeled 2 min 31° C., then 30 min 31° C.), the “% transfer of intracellular ^3 H-FC to the cell surface, relative to rate in absence of inhibitor” value amounted to 50 ± 3%. In addition, the “FC label in density gradient” value in the experiment on fibroblast monolayers [5] was “no peak of FC label was present with clathrin at d 1.12 g ml^-1”.
